{
  "source": "paper PMC3674748",
  "about": "“High-level expression and characterization of a chimeric lipase from Rhizopus oryzae for biodiesel production” (Biotechnology for Biofuels, 2013)",
  "key": {"r28ROL": {"biological_target": "T1, r28ROL (Rhizopus arrhizus, UniProt P61872)", "T1 construct": "Pichia pastoris GS115, secreted, purified; proROL without signal peptide cleaved Kex2-like; about 37 kDa on SDS-PAGE", "T1 sequence (P61872 96-392)": "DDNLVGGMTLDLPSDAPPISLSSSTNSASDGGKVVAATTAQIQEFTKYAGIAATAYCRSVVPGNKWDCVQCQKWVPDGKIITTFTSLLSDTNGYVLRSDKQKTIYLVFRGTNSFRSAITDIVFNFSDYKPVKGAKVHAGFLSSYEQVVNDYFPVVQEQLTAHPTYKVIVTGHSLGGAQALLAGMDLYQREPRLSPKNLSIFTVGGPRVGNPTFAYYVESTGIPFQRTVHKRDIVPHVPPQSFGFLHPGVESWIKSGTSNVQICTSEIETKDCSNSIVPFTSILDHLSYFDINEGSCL", "test": "interfacial kinetics, p-nitrophenol release from emulsified pNPP", "type": "biochemical", "conditions": "heterogeneous (emulsion) medium; free purified enzyme; value not given"}, "mROL": {"biological_target": "T2, mROL (Rhizopus arrhizus, UniProt P61872)", "T2 sequence (P61872 124-392)": "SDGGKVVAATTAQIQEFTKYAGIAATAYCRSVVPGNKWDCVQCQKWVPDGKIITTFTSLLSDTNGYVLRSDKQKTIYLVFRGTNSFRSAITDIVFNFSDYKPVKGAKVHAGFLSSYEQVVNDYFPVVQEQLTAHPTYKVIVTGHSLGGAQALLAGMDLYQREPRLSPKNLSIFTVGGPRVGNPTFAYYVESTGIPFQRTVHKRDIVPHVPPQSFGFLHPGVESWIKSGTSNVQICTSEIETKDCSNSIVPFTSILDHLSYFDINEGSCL", "test": "residual activity after heat treatment, pNPP assay", "type": "biochemical", "conditions": "turnover only; 1 h pre-incubation at 40 °C"}},
  "data": [
    {"smiles": "CCCCCCCCCCCCCCCC(=O)Oc1ccc([N+](=O)[O-])cc1", "note": "[p-nitrophenyl palmitate]", "values": [
      {"measurement": "Km*", "setting": "r28ROL", "value": "The kinetic parameters were determined using p-nitrophenyl palmitate (pNPP) as substrate."},
      {"measurement": "residual activity after heat treatment, pNPP assay", "setting": "mROL", "value": "thermostability of the mature R. oryzae lipase by P. pastoris in this study"}
    ]}
  ]
}
